From patent publication US20020107283A1, “Carbamate compounds for use in preventing or treating neuropathic pain and cluster and migraine headache-associated pain” (priority 2000, published 2002)

Tests used:
[1] = tested on: L5 and L6 spinal nerve ligated rats, mechanical allodynia; test: Antiallodynic activity, electronic Von Frey probes, L5 and L6 spinal nerve ligation; type: in vivo, Rj: Wistar (Han) rats
Experimental: Pathogen-free, male Rj: Wistar (Han) rats (300-380 g) were purchased from Elevage Janvier, 53940 Le Genest-Saint-Isle, France. The animals were maintained on a 12-h light/dark cycle (lights on from 7:00-19:00) in a controlled ambient temperature of 21±1° C., and relative humidity maintained at 40-70%. The animals had free access to food (UAR 113) and tap water until tested.
Rats were anesthetized (sodium pentobarbital 40 mg/kg i.p.). A ligature was tied tightly around the left L5 and L6 spinal nerves. The rats received an i.m. injection of 50 000 IU Penicillin (Diamant®) and were allowed to recover. This procedure results in mechanical allodynia in the left hind paw. Two weeks after the surgery, when the allodynic state was fully developed, rats were submitted consecutively to tactile stimulation of both the non-lesioned and the lesioned hindpaws.
The animals were placed on an elevated grid floor in Plexiglass boxes (19×11.5×13 cm). The tip of an electronic Von Frey probe (Bioseb, Model 1610) was then applied with increasing pressure to the lesioned and non-lesioned hindpaws and the force required to induce paw-withdrawal was automatically recorded. Prior to receiving drug treatment all animals were submitted to tactile stimulation and assigned to treatment groups matched on the basis of their pain response. This procedure was carried out 3 times for each paw and the mean paw force was calculated to provide basic scores per animal. Data were expressed as percent change (means ±SEM) of effectiveness from the controls. Statistical analysis was done using non-paired and paired Student's t tests.
As summarized in Table 2 below, an enantiomer of Formula (Ib) substantially free of other enantiomers was evaluated at the doses 10, 30 and 100 mg/kg (n=8), administered p.o. in a volume of 5 mL/kg. Morphine (128 mg/kg) was used as reference substance. Control animals received a p.o. administration of vehicle. The test was performed blind 30, 60 and 90 minutes after drug administration.

[2] = tested on: Chung model of neuropathic pain (L5 spinal nerve ligated rats, mechanical allodynia); test: Antiallodynic activity in the Chung model, manually applied von Frey probes; type: in vivo, Sprague-Dawley rats
Description: The procedure used to test the antiallodynic activity of an enantiomer of Formula (I) substantially free of other enantiomers was the procedure for the measurement of allodynia found in the Chung Model (Kim S. H. and Chung J. M., An Experimental Model for Peripheral Neuropathy Produced by Segmental Spinal Nerve Ligation in the Rat, Pain, 1992, 50, 355-363).
Pathogen-free, male albino Sprague-Dawley rats, 200 g, were purchased from Harlan Industries (Indianapolis, Ind.) and maintained on a 12-h light/dark cycle (lights on at 06:00 h) in a climate-controlled room with food and water available ad libitum up to the time of the testing and food withdrawn 18 hr prior to testing.
The rats were anesthetized with isoflurane inhalant anesthesia. The left lumbar spinal nerve at the level of L5 was tightly ligated (4-0 silk suture) distal to the dorsal root ganglion and prior to entrance into the sciatic nerve, as described by Kim and Chung. The incisions were closed and the rats were allowed to recover under conditions described above. This procedure results in mechanical allodynia in the left hind paw. The sham operation, when performed, consisted of a similar surgical procedure lacking only the final ligation of the spinal nerve. Mechanical (tactile) allodynia was assessed by recording the pressure at which the affected paw (ipsilateral to the site of nerve injury) was withdrawn from graded stimuli (von Frey filaments ranging from 4.0 to 148.1 mN) applied by hand perpendicularly to the plantar surface of the paw (between the footpads) through wire-mesh observation cages. A paw withdrawal threshold (PWT) was determined by sequentially increasing and decreasing the stimulus strength and analyzing withdrawal data using a Dixon non-parametric test, as described by Chaplan et al (Chaplan S. R., Bach F. W., Pogrel J. W., Chung J. M. and Yaksh T. L., Quantitative Assessment of Tactile Allodynia in the Rat Paw, J Neurosci Meth, 1994, 53, 55-63). Normal rats, sham operated rats, and the contralateral paw of L5 ligated rats withstand at least 148.1 mN (equivalent to 15 g) of pressure without responding. Spinal nerve ligated rats respond to as little as 4.0 mN (equivalent to 0.41 g) of pressure on the affected paw. […] The PWT was used to calculate the % maximal possible effect (% MPE) according to the formula:
% MPE=100×(PWT−CT)/(CO−CT).
As summarized in Table 1 below, the enantiomer of Formula (Ib) substantially free of other enantiomers was screened for antiallodynic activity in the Chung model of neuropathic pain at a dose of 30 mg/kg, po, with responses being measured at 0.5, 1, 2 and 4 hr post dosing.

Question: How did the “% Change (paw-withdrawal force from controls)” value (“% Change” for short) ([1]; 128 mg/Kg morphine, positive control) turn out when `CN1CC[C@]23c4c5ccc(O)c4O[C@H]2[C@@H](O)C=C[C@H]3[C@H]1C5` [morphine, Morphine, reference compound] was run?
Answer: The value was 38%.

Question: For `NC(=O)OC[C@@H](O)c1ccccc1Cl` [enantiomer of Formula (Ib)], which “% Maximum Possible Effect” value ([2]; 30 mg/kg, po, paw withdrawal threshold, activity seen at 30 min post-dosing, n=5) is on record?
Answer: The value was 51%.

Question: What about the “time course of antiallodynic activity” value ([2]; 30 mg/kg, po, responses measured at 0.5, 1, 2 and 4 hr post dosing) of the same molecule?
Answer: The value was “exhibited antiallodynic activity at 30 min. post-dosing, and responses returned to baseline by one hour”.

Question: And the “dose dependence of antiallodynic responses” value ([2]; about 5 mg/kg, p.o. to about 45 mg/kg, p.o., 30 min)?
Answer: The value was “dose-dependent”.

Question: And the “time of peak antiallodynic effect” value ([2]; after oral dosing)?
Answer: The value was 30 min.

Question: And the “maximum % MPE” value ([2]; highest dose tested (about 45 mg/kg, p.o.), 30 min after oral dosing, N=5)?
Answer: The value was 60%.

Question: And the “% Change” value ([1]; 10 mg/kg p.o., ligatured paw, 60 minute measurement, n=8, p ns)?
Answer: The value was 65%.

Question: And the “% Change” value ([1]; 30 mg/kg p.o., ligatured paw, 60 minute measurement, n=8, p <0.05)?
Answer: The value was 80%.

Question: And the “% Change” value ([1]; 100 mg/kg p.o., ligatured paw, 60 minute measurement, n=8, p <0.05)?
Answer: The value was 72%.

Question: And the “effect on the non-ligatured paw” value ([1]; 10, 30 and 100 mg/kg p.o., 60 minute measurement)?
Answer: Its value is “without affecting the non-ligatured paw”.

Question: What about the “anti-allodynic effect at 90 min post-dosing” value ([1]; p.o., 90 min post-dosing) of the same molecule?
Answer: Its value is “no longer present by 90 min post-dosing”.
